The results in this text go back to ChEMBL document CHEMBL1128145, “N-(carbobenzyloxy)isatin: A slow binding -keto lactam inhibitor of -chymotrypsin” (Bioorg Med Chem Lett, 1995).

SMILES strings stand for the structures.

The target of assay [1] is T1, Chymotrypsinogen B (Homo sapiens, UniProt P17538). In words: Inhibition constant against Alpha-chymotrypsin inhibitor was determined.
The target of assay [2] is T1, Chymotrypsinogen B. In words: Inhibition constant against alpha-chymotrypsin.
Assay [3] concerns the target T1, Chymotrypsinogen B.
Description: (§1) Rate constant against alpha-chymotrypsin
Assay [4] addresses T1, Chymotrypsinogen B. The source holds these as a separate data set.
Description: Rate constant against alpha-chymotrypsin from time dependent inhibition and reactivation data
The target of assay [5] is T1, Chymotrypsinogen B. This is another data set of the same source.
Description: Rate constant against Alpha-chymotrypsin from time dependent inhibition and reactivation data
For assay [6], the target named is T1, Chymotrypsinogen B. The source holds these as a separate data set.
Description: as §1

T1 sequence (P17538 34-164 limits assumed, other chains not shown): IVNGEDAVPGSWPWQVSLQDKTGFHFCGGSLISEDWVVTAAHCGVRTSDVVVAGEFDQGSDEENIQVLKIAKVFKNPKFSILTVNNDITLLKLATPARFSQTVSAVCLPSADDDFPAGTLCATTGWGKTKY
T1 sequence (P17538 167-263 limits assumed, other chains not shown): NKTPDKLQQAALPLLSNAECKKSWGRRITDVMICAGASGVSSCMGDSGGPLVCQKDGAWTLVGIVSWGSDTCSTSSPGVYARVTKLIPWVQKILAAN

Turning to `CC(C)(C)OC(=O)N1C(=O)C(=O)c2ccccc21`, the inhibitory constant (Ki) – broadly, a measure of affinity in units of concentration, obtained from inhibition or displacement – on Chymotrypsinogen B [1] is > 2000 µM.

`O=C1C(=O)N(C(=O)OCc2ccccc2)c2ccccc21`: the Ki at Chymotrypsinogen B [2] came out at 3.8 µM. For the same compound, the k off on Chymotrypsinogen B [3] is 0.00095 s⁻¹; at Chymotrypsinogen B [4] it was 4.01e-05 s⁻¹. The k on on Chymotrypsinogen B [5] was found to be 7.63 M⁻¹ s⁻¹; on Chymotrypsinogen B [6], 254 M⁻¹ s⁻¹.
